Measured values from article PMC8449414, “Rational design of ASCT2 inhibitors using an integrated experimental-computational approach” (Proceedings of the National Academy of Sciences of the …, 2021).

Legend:
Type in all cases: cell-based
rASCT2 [1] = molecular target: T1, rASCT2 (Rattus norvegicus, UniProt D3ZJ25); experiment: Electrophysiology: inhibition of leak anion current in transfected HEK293 cells; settings: for inhibition of the leak anion current (in words): concentration range tested up to 200 µM, Ki could not be obtained; for Km: substrate dose response of anion current, rat ASCT2-expressing HEK293 cells, read-out: apparent Km
T1 construct: expressed in transfected cells; host or cells: HEK293 (ATCC CRL-11268), transient transfection
T1 sequence (D3ZJ25 1-555): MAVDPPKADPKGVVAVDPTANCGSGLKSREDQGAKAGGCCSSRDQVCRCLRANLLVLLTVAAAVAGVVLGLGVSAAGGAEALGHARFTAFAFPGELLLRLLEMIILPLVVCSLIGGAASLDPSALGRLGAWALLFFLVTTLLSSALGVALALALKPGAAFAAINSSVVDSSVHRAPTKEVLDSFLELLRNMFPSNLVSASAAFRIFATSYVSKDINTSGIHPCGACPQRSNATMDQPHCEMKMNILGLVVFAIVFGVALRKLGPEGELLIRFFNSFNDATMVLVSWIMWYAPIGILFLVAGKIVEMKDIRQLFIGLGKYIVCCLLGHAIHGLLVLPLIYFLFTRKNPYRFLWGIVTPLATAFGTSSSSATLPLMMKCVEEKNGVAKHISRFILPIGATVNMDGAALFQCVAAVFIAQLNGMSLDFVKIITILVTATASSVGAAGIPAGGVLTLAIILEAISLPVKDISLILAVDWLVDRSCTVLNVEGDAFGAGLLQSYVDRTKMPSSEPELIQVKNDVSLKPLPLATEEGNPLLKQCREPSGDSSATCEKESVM
Experimental: (§1) Cell culture and transfection
(§2) Human embryonic kidney 293 (HEK293, ATCC CRL -11268) cells were cultured in DMEM media supplemented with 10% (v/v) fetal bovine serum (FBS), 2 mM glutamine, 1% penicillin streptomycin solution, 1 mM sodium pyruvate and non -essential amino acids. Cells were maintained at 370C in a fully humidified atmosphere containing 5% CO2. rASCT2, hASCT2, hASCT1, EAAT1, EAAT2, EAAT3, EAAT5 and YFP complementary DNAs were each used to transiently transfect HEK293 using POLYPLUS Jet-prime transfection reagent. Cells were analyzed using electrophysiological techniques 24-40 hours after transfection.
(§3) Electrophysiological techniques
(§4) Electrophysiological experiments were performed as described previously 1,2. Stock solutions of inhibitor was prepared in dimethyl sulfoxide (DMSO) up to 100 mM.
(§5) Dilutions to working concentrations were made using external buffer. The highest

hASCT2 = molecular target: T2, hASCT2 (Homo sapiens, UniProt Q15758); experiment: as above; settings: HEK293 cells, 0 mV, 130 mM NaSCN internal, 140 mM NaCl external; No current = no inhibition of anion leak current up to highest concentration tested (§ 20-50, || 100-400, # 1500-2500 µM); read-out: Binding affinity Ki (apparent Ki)
T2 construct: expressed in transfected cells; host or cells: HEK293 (ATCC CRL-11268), transient transfection
T2 sequence (Q15758 1-541): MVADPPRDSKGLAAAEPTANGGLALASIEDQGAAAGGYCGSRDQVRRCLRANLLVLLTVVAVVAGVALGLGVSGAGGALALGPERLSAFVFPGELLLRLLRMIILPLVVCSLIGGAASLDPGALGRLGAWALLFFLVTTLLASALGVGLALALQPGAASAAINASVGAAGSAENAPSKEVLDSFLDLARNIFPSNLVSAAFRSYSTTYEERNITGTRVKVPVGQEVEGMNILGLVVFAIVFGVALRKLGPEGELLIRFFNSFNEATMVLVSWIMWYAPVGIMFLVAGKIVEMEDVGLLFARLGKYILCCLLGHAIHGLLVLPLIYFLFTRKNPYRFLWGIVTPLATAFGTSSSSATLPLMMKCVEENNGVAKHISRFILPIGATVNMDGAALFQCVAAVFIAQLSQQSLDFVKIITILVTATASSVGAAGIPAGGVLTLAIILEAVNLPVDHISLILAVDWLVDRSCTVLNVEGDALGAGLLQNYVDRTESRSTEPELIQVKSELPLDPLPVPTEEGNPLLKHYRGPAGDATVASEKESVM
Experimental: as §1, §2, §3, §4, §5

rASCT2 [2] = molecular target: T1, rASCT2; experiment: Inhibitor dissociation kinetics by ligand displacement with alanine (rapid solution exchange); settings: 5 mM alanine rapidly applied, no inhibitor (control), 0 mV
Experimental: Fig. 2. […] (A) Electrophysiological recordings obtained after application of alanine (red trace) and increasing concentrations of Lc-BPE (black traces). The times of application of alanine or Lc-BPE are shown by a gray bar (top). (B and C) Lc-BPE inhibitor dose–response relationships for rASCT2 and hASCT2, respectively. […] Currents were normalized to the current recorded after application of 10 µM inhibitor concentration. (D) Inhibition of glutamine uptake (5 µM external concentration) in the presence of varying concentration of Lc-BPE and 5 µM glutamine measured in proteoliposomes reconstituted with purified hASCT2. […] Errors bars represent SEM from at least two biologically independent measurements. (E) Current recorded after rapid solution exchange from extracellular buffer (control, gray bar, black trace) to a solution containing buffer + 5 mM alanine (white bar). For the red trace, the cell was preincubated with 10 µM Lc-BPE (red bar, red trace) followed by rapid application of 5 mM alanine. All current recordings were performed at 0 mV in the presence of 130 mM NaSCN internal and 140 mM NaCl external (homoexchange) solutions. […]
To test this, we measured the dissociation kinetics of Lc-BPE using a ligand displacement approach. First, rASCT2-expressing cells were preincubated with a saturating solution of Lc-BPE (10 µM), and subsequently the inhibitor was displaced using a supersaturating concentration of the substrate L-alanine (5 mM) (Fig. 2 E and F).

Km (rASCT2 [1]; 0 mV) [µM]	Structure (SMILES)	inhibition of the leak anion current (in words) (rASCT2 [1])	further results
	O=C(O[C@H]1CN[C@@H](C(=O)O)C1)c1ccc(-c2ccccc2)cc1 [Dc-BPE]	too small at high compound concentrations	
233 ± 41	NC(=O)CC[C@H](N)C(=O)O [glutamine, L-glutamine, reference compound]		
	O=C(O[C@H]1CN[C@H](C(=O)O)C1)c1ccc(-c2ccccc2)cc1 [Lt-BPE]		Ki (hASCT2): 205 ± 27 µM; Ki (rASCT2 [1]; HEK293 cells, 0 mV, 130 mM NaSCN internal, 140 mM NaCl external, No current = no inhibition of anion leak current up to highest concentration tested (§ 20-50, || 100-400, # 1500-2500 µM), read-out: Binding affinity Ki (apparent Ki)): 232 ± 44 µM
	O=C(O[C@@H]1CN[C@@H](C(=O)O)C1)c1ccc(-c2ccccc2)cc1 [Dt-BPE]	unspecific	
318 ± 17	C[C@H](N)C(=O)O [alanine, L-alanine, reference compound]		rate constant of the current rise (rASCT2 [2]): 24.6 ± 5.2 s⁻¹; rate constant of the current rise (rASCT2 [2]; listed as Alanine): 24 s⁻¹
